Reference: ChEMBL document CHEMBL5500352, “ML162 derivatives incorporating a naphthoquinone unit as ferroptosis/apoptosis inducers: Design, synthesis, anti-cancer activity, and drug-resistance reversal evaluation” (Eur J Med Chem, 2024)
The source made the active and inactive calls. The calls are words filed in the database; no cut-off is given here.

Tests used:
HT-1080 [1] = test: Cytotoxicity against human HT-1080 cells incubated for 48 hrs by CCK-8 assay; type: functional, cell-based; conditions: HT-1080, 48 h
HT-1080 [2] = test: Induction of ferroptosis in human HT-1080 cells assessed as accumulation of lipid peroxidation at 10 uM after 6 hrs by BODIPYTM 581/591C11 probe based flow cytometry assay; type: functional, cell-based
[3] = Selectivity index, ratio of IC50 for human HPNE cells to IC50 for human HT-1080 cells
HT-1080 [4] = test: Induction of ferroptosis in human HT-1080 cells assessed as accumulation of intracellular ROS level at 4 uM after 12 hrs by DCFH-DA staining based confocal laser scanning microscopy analysis; type: functional, cell-based
HT-1080 [5] = test: Induction of ferroptosis in human HT-1080 cells assessed as appearance of ruptured mitochondria at 4 uM after 24 hrs by transmission electron microscope analysis; type: functional, cell-based
HT-1080 [6] = test: Induction of ferroptosis in human HT-1080 cells assessed as mitochondrial swelling at 4 uM after 24 hrs by transmission electron microscope analysis; type: functional, cell-based
HT-1080 [7] = test: Induction of ferroptosis in human HT-1080 cells assessed as decrease in mitochondrial crests at 4 uM after 24 hrs by transmission electron microscope analysis; type: functional, cell-based
HT-1080 [8] = test: Induction of ferroptosis in human HT-1080 cells assessed as appearance of broken outer membrane of mitochondria at 4 uM after 24 hrs by transmission electron microscope analysis; type: functional, cell-based
HT-1080 [9] = test: Cytotoxicity against human HT-1080 cells assessed as cell viability at 4 uM in presence of fer-1 (reference value: 30%); type: functional; conditions: read-out: Activity
HT-1080 [10] = test: Induction of apoptosis in human HT-1080 cells assessed as decrease in Bcl-2 level after 24 hrs by Western blotting analysis; type: functional, cell-based; conditions: dose 0.5-4 µM
HT-1080 [11] = test: Induction of apoptosis in human HT-1080 cells assessed as viable cells at 1 uM incubated for 24 hrs by Annexin-V FITC/PI staining based flow cytometry analysis (reference value: 92.5%); type: functional; conditions: read-out: Activity
HT-1080 [12] = test: Induction of apoptosis in human HT-1080 cells assessed as early apoptotic cells at 1 uM incubated for 24 hrs by Annexin-V FITC/PI staining based flow cytometry analysis (reference value: 1.85%); type: functional
HT-1080 [13] = test: Induction of apoptosis in human HT-1080 cells assessed as late apoptotic cells at 1 uM incubated for 24 hrs by Annexin-V FITC/PI staining based flow cytometry analysis (reference value: 1.66%); type: functional
HT-1080 [14] = test: Induction of apoptosis in human HT-1080 cells assessed as necrotic cells at 1 uM incubated for 24 hrs by Annexin-V FITC/PI staining based flow cytometry analysis (reference value: 3.98%); type: functional
HT-1080 [15] = test: Induction of apoptosis in human HT-1080 cells assessed as early apoptotic cells at 2 uM incubated for 24 hrs by Annexin-V FITC/PI staining based flow cytometry analysis (reference value: 1.85%); type: functional
HT-1080 [16] = test: Induction of apoptosis in human HT-1080 cells assessed as necrotic cells at 2 uM incubated for 24 hrs by Annexin-V FITC/PI staining based flow cytometry analysis (reference value: 3.98%); type: functional
HT-1080 [17] = test: Induction of apoptosis in human HT-1080 cells assessed as viable cells at 4 uM incubated for 24 hrs by Annexin-V FITC/PI staining based flow cytometry analysis (reference value: 92.5%); type: functional; conditions: read-out: Activity
HT-1080 [18] = test: Induction of apoptosis in human HT-1080 cells assessed as late apoptotic cells at 4 uM incubated for 24 hrs by Annexin-V FITC/PI staining based flow cytometry analysis (reference value: 1.66%); type: functional
HT-1080 [19] = test: Induction of apoptosis in human HT-1080 cells assessed as necrotic cells at 4 uM incubated for 24 hrs by Annexin-V FITC/PI staining based flow cytometry analysis (reference value: 3.98%); type: functional
HT-1080 [20] = test: Induction of apoptosis in human HT-1080 cells assessed as early apoptosis at 1 to 2 uM incubated for 48 hrs by Annexin-V FITC/PI staining based flow cytometry analysis; type: functional, cell-based; conditions: dose 1-2 µM
HT-1080 [21] = test: Inhibition of colony formation in human HT-1080 cells incubated for 48 hrs followed by replacement with fresh media and measured after 12 days by crystal violet staining based assay; type: functional, cell-based; conditions: dose 1-2 µM
HT-1080 [22] = test: Antitumor activity against human HT-1080 cells xenografted in BALB/c nude mouse assessed as tumor growth inhibition at 40 mg/kg, ip administered once daily for 19 days and measured every 2 days; type: functional; conditions: HT-1080, 456 h, time 19 day, read-out: TGI
HT-1080 [23] = test: Antitumor activity against human HT-1080 cells xenografted in BALB/c nude mouse assessed as tumor growth inhibition at 20 mg/kg, ip administered once daily for 19 days and measured every 2 days; type: functional, organism-based; conditions: time 19.0 day
HT-1080 [24] = test: Antitumor activity against human HT-1080 cells xenografted in ip dosed BALB/c nude mouse assessed as tumor growth inhibition administered once daily for 19 days and measured every 2 days; type: functional, organism-based; conditions: dose 20-40 mg/kg, time 19.0 day
HT-1080 [25] = test: Antitumor activity against human HT-1080 cells xenografted in ip dosed BALB/c nude mouse assessed as increase in 4-HNE level administered once daily for 19 days and measured every 2 days by immunohistochemistry assay; type: functional, organism-based; conditions: dose 20-40 mg/kg, time 19.0 day
[26] = Toxicity in BALB/c nude mouse xenografted with human HT-1080 cells assessed as change in heart morphology at 20 to 40 mg/kg, ip administered once daily for 19 days and measured every 2 days by H and E staining based assay; type: organism-based; conditions: in vivo, 456 h, dose 20-40 mg/kg, time 19 day
[27] = Toxicity in BALB/c nude mouse xenografted with human HT-1080 cells assessed as change in liver morphology at 20 to 40 mg/kg, ip administered once daily for 19 days and measured every 2 days by H and E staining based assay; type: organism-based; conditions: in vivo, 456 h, dose 20-40 mg/kg, time 19 day
[28] = Toxicity in BALB/c nude mouse xenografted with human HT-1080 cells assessed as change in spleen morphology at 20 to 40 mg/kg, ip administered once daily for 19 days and measured every 2 days by H and E staining based assay; type: organism-based; conditions: in vivo, 456 h, dose 20-40 mg/kg, time 19 day
[29] = Toxicity in BALB/c nude mouse xenografted with human HT-1080 cells assessed as change in lung morphology at 20 to 40 mg/kg, ip administered once daily for 19 days and measured every 2 days by H and E staining based assay; type: organism-based; conditions: in vivo, 456 h, dose 20-40 mg/kg, time 19 day
[30] = Toxicity in BALB/c nude mouse xenografted with human HT-1080 cells assessed as necrosis at 20 to 40 mg/kg, ip administered once daily for 19 days and measured every 2 days by H and E staining based assay; type: organism-based; conditions: in vivo, 456 h, dose 20-40 mg/kg, time 19 day
[31] = system: AMG 510-resistant MIA PaCa-2; test: Cytotoxicity against human AAMG 510-resistant MIA PaCa-2 cells at 10 uM; type: functional, cell-based
[32] = Potentiation of AMG510 induced cytotoxicity in human AMG 510-resistant MIA PaCa-2 cells assessed as reduction in cell survival rate at 5 uM in presence of 10 nM AMG510 (reference value: 90%); type: functional
[33] = Potentiation of AMG510 induced cytotoxicity in human AMG 510-resistant MIA PaCa-2 cells assessed as reduction in cell survival rate at 1 uM in presence of 10 nM AMG510 (reference value: 90%); type: functional

Structure (SMILES): O=C(CCCCCNC1=CC(=O)c2ccccc2C1=O)Nc1ccc(N(C(=O)CCl)C(C(=O)NCCc2ccccc2)c2cccs2)cc1 (stereo not drawn)
- IC50 (HT-1080 [1]): 1600 nM
- Activity (HT-1080 [2]): Active
- Ratio IC50 [3]: 5.96
- Activity (HT-1080 [4]): Active
- Activity (HT-1080 [5]): Active
- Activity (HT-1080 [6]): Active
- Activity (HT-1080 [7]): Active
- Activity (HT-1080 [8]): Active
- viability at 4 µM (HT-1080 [9]): 66%
- Activity (HT-1080 [10]): Dose-Dependent Effect
- viability at 1 µM (HT-1080 [11]): 90.7%
- Activity (HT-1080 [12]): 3.85%
- Activity (HT-1080 [13]): 3.11%
- Activity (HT-1080 [14]): 2.32%
- Activity (HT-1080 [15]): 8.48%
- Activity (HT-1080 [16]): 4.02%
- viability at 4 µM (HT-1080 [17]): 79.9%
- Activity (HT-1080 [18]): 7.99%
- Activity (HT-1080 [19]): 3.03%
- Activity (HT-1080 [20]): Active
- inhibition (HT-1080 [21]): Dose-Dependent Effect
- inhibition in vivo at 40 mg/kg (HT-1080 [22]): 63%
- Activity (HT-1080 [23]): Active
- Activity (HT-1080 [24]): Dose-Dependent Effect
- Activity (HT-1080 [25]): Dose-Dependent Effect
- Activity [26]: Non-Toxic
- Activity [27]: Non-Toxic
- Activity [28]: Non-Toxic
- Activity [29]: Non-Toxic
- Activity [30]: Non-Toxic
- Activity [31]: Active
- Activity [32]: ~10%
- Activity [33]: ~60%
